Results taken from PMC6348054 (Bioorganic & medicinal chemistry letters, 2018).

Tested on: 20S proteasome core particle (20S CP)
Assay: FRET peptide hydrolysis assay, percent stimulation over basal
Assay type: biochemical, Homo sapiens

SMILES: CCCCC/C=C\C/C=C\CCCCCCCC(=O)O [compound 15]
- Stimulation: 160%
